Source: a melting point compilation (Tetko et al.; mined from patent text by program, amines drawn as free bases though some values may be those of a salt)

Compared with `Cc1ccccc1-c1ccc(C(=O)N2Cc3ccc(C(=O)NCc4cccc(C(F)(F)F)c4)n3Cc3ccccc32)cc1C`, `COc1ccc(S(=O)(=O)N2c3ccc(Br)cc3-c3ccccc3C2c2ccccc2)cc1Br` (configuration not stated) is higher in melting point: 171 to 173 °C for the first, 205 to 207 °C for the second.

First: CC(Oc1ncn(-c2cccc(C(F)(F)F)c2)n1)C(=O)O (configuration not stated)
Second: CCOC(=O)c1cn(-c2ccc(C(F)(F)F)cn2)nc1C(C)C
The melting point of the first is higher: 206 to 208 °C for the first, 94 to 95 °C for the second.

First: N#CCCCCC(N)=O
Second: CCCCCCCCc1cc(C=O)co1
The melting point of the first is higher: 63 to 65 °C for the first, 25 °C for the second.

First: C1CCN(c2nc(N3CCCC3)c3nc(N4CCCCC4)nc(N4CCCC4)c3n2)CC1
Second: c1cn(-c2nc(N3CCOCC3)nc(-n3ccnc3)n2)cn1
The melting point of the first is lower: 254 to 256 °C for the first, 268 to 270 °C for the second.

First: Cc1ccc(C)n1-c1nc(S(=O)(=O)Nc2c(Cl)cccc2Cl)n[nH]1
Second: CSc1cnc(OCCOc2ncnc(NS(=O)(=O)c3ccc(C(C)(C)C)cc3)c2Br)nc1
The melting point of the first is lower: 107 to 108 °C for the first, 120 to 121 °C for the second.

`C=CCN(C1CCN(C)CC1)S(=O)(=O)c1ccc(Nc2nccc(Nc3ccc(F)cc3)n2)cc1` and `O=C1CC[C@H](CC(c2ccc(S(=O)(=O)C3CC3)cc2)c2ccc(-c3nccs3)[nH]2)C1` (some centres not stated) cannot be ordered by melting point: 167 °C for the first, 165 to 167 °C for the second.

First: Cc1nn(-c2ccccn2)cc1COc1ccc(CC(=O)O)cc1
Second: COc1ccc(NC(=N)c2ccccn2)cc1
The melting point of the first is higher: 161 to 162 °C for the first, 73 to 75 °C for the second.

First: N#CN=C(Nc1ccc(Cl)nc1)Oc1ccccc1
Second: NC(=O)C(Nc1ccc(I)cc1)c1ccccc1 (configuration not stated)
The melting point of the first is lower: 133 to 134 °C for the first, 134 to 137 °C for the second.

First: COCc1ccn2nc(S(=O)(=O)Cl)nc2n1
Second: COC(=O)c1cc(Cl)cc(C(=O)OC)n1
The melting point of the first is lower: 125 °C for the first, 132 to 134 °C for the second.

Compared with `CCOP(=O)(OCC)c1ccc(NC(=O)C2Cc3c(cccc3C(C)C)C(=O)CS2(=O)=O)cc1` (configuration not stated), `CC(C)n1nc(-c2sc(NC(=O)c3cccc(Cl)c3)nc2-c2ccccc2)ccc1=O` is lower in melting point: 229 to 230 °C for the first, 173 to 174 °C for the second.

Compared with `COc1cc2c(cc1C=NO)C(C)(C)CCC2(C)C`, `COc1cc(C=C(C)[N+](=O)[O-])cc2c1OC(C)(C)C2` is lower in melting point: 182 to 183 °C for the first, 120 to 121 °C for the second.

First: ON=C1CCc2cc(Cl)ccc21
Second: S=C=Nc1cc(Cl)ccc1N1CCOCC1
The melting point of the first is higher: 181 to 182 °C for the first, 86 to 87 °C for the second.

First: O=C(O)CCC1CCN(CC(=O)OC2CCCCC2)CC1
Second: O=C(CCCC1CCN(Cc2ccccc2)CC1)c1ccc(F)cc1
The melting point of the first is higher: 85 to 88 °C for the first, 53 to 55 °C for the second.

First: Nc1nc2ccccc2c2c1nc(C1CCOC1)n2CCOc1ccccc1 (configuration not stated)
Second: CCOCc1nc2c(N)nc3cc(-c4ccccc4)cnc3c2n1CC(C)(C)F
The melting point of the first is higher: 236 °C for the first, 173 to 174 °C for the second.

First: CN(C)S(=O)(=O)n1c(N)nc2ccc(C(=CCl)c3ccccc3)cc21
Second: Cn1c(-c2ccccc2S(C)=O)nc2ccccc21 (configuration not stated)
The melting point of the first is higher: 207 to 215 °C for the first, 157 to 159 °C for the second.

Compared with `O=C1c2cc3nnn(CCC4=CCCCC4)c(=O)c3cc2OC2CCCN12` (configuration not stated), `CC[C@H](C1CC1)n1cc(Cl)nc(N2CCc3cc(OC)cc(Cl)c32)c1=O` is lower in melting point: 124 °C for the first, 118 to 120 °C for the second.

Compared with `CC(=O)C(=Cc1ccc(S(=O)(=O)c2ccccc2)cc1)C(C)=O`, `O=C(O)[C@H](Cc1ccccc1)NC(=O)[C@@H]1CCCN1S(=O)(=O)c1ccc(Cl)cc1` is lower in melting point: 102 to 105 °C for the first, 69 to 71 °C for the second.

First: O=C(O)c1cccc(NCCOc2cccc3ccccc23)c1
Second: O=C(c1ccccc1)c1ccccc1Nc1ncccc1[N+](=O)[O-]
The melting point of the first is higher: 150 to 152 °C for the first, 85 °C for the second.

First: COCCOCCOC(=O)C#CC(=O)c1cc(OC)c(OC)c(OC)c1
Second: COc1cc(C(O)c2cccs2)cc([N+](=O)[O-])c1OC (configuration not stated)
The melting point of the first is lower: 33 to 34 °C for the first, 79 to 81 °C for the second.

First: CC(C)(C#N)c1cc(CCCn2cncn2)cc(C(C)(C)C#N)c1
Second: CCNC(=S)N1CCN([C@H](C)[C@](O)(Cn2cncn2)c2ccc(F)cc2F)CC1
The melting point of the first is higher: 102 to 104 °C for the first, 96 to 98 °C for the second.

First: CCOC(=O)c1cn(CCCl)c2cc(Cl)ccc2c1=O
Second: CCNC(=O)Nc1ccc(C(O)(C(F)(F)F)C(F)(F)F)cc1C(=O)OCC
The melting point of the first is higher: 208 to 210 °C for the first, 144 to 146 °C for the second.

First: O=C(O)c1nc(-c2ccc(Cl)cc2Cl)c(-c2ccccc2)s1
Second: O=c1[nH]c2cc(Cl)ccc2c(=O)c2c(-c3ccccc3)n[nH]c12
The melting point of the first is lower: 105 °C for the first, 328 to 331 °C for the second.

Compared with `c1ccc(CSc2ncnc3ccccc23)nc1`, `Cc1nnccc1-c1c(-c2ccccc2)nn2ccccc12` is higher in melting point: 64.9 to 66.2 °C for the first, 209 to 214 °C for the second.

Compared with `C#CCN1C(=O)N(c2ccc(C#N)c(C(F)(F)F)c2)C(=O)C1(CF)CF`, `O=C(O)CCC1(c2cccc(Cl)c2)NC(=O)NC1=O` (configuration not stated) is higher in melting point: 126 to 127 °C for the first, 196 to 217 °C for the second.

Compared with `CC1(C)CC(=O)C2=C(C1)NC1=C(C(=O)CC(C)(C)C1)C2c1cc(Br)cc(Br)c1`, `COc1ccc(-c2ccc3cnc(Nc4ccc(N5CCN(CC(N)=O)CC5)c(F)c4)nn23)cn1` is lower in melting point: 288 to 290 °C for the first, 217 °C for the second.

First: Brc1ccccc1P(c1cccc2ccccc12)c1cccc2ccccc12
Second: Cc1c(-c2ccc(OCc3ccccc3)cc2)[nH]c2ccc(OCc3ccccc3)cc12
The melting point of the first is higher: 206 to 207 °C for the first, 149 to 150 °C for the second.

First: CCN(c1ccc(C(=O)c2ccccc2)cc1[N+](=O)[O-])C1CCCCC1
Second: CC1(c2ccccc2)OC(C(=O)O)Oc2ccccc21 (configuration not stated)
The melting point of the first is lower: 91.5 to 92 °C for the first, 153 °C for the second.

First: Nc1ncc2cc(-c3ccncc3)c(N)nc2n1
Second: CC(C)Cn1cnc2c(N)nc3ccc(-c4ccsc4)cc3c21
The melting point of the first is higher: > 340 °C for the first, 235 to 236 °C for the second.

Compared with `FC(F)(F)C(c1ccccc1)(c1ccccc1)c1ccccc1`, `Clc1ccc(N(Cc2ccccc2)c2ccccc2)cc1` is lower in melting point: 158 to 159 °C for the first, 94 to 95 °C for the second.

First: COc1ccc(CNC(=O)c2cn3c(=O)n(Cc4ccc(Cl)c(Cl)c4)c(=O)cc3s2)cc1
Second: COc1ccc(C2NCCc3c2[nH]c2ccccc32)cc1 (configuration not stated)
The melting point of the first is higher: 206 to 207 °C for the first, 131 °C for the second.

First: CC(=O)C(C)(C)Nc1nc(N)nc(O)c1[N+](=O)[O-]
Second: CC(C)(C)OC(=O)Nc1ccsc1NC(=O)OC(C)(C)C
The melting point of the first is higher: 289 °C for the first, 165 to 167 °C for the second.

Compared with `COc1ccc(Cl)cc1NC(=O)[C@H]1[C@H](c2ccccc2)C1(C)C` (relative stereo), `COc1ccc(C(=O)Nc2ccccc2)cc1NC(=NC#N)Nc1cc(Cl)cc(Cl)c1` is higher in melting point: 155 to 157 °C for the first, 225 to 227 °C for the second.

Compared with `CC1Cc2cc3c(cc2C(c2ccc([N+](=O)[O-])cc2)=NN1C#N)OCO3` (configuration not stated), `COc1ccc2c(=O)c(-c3ccc(C)cc3)coc2c1OC` is lower in melting point: 172 to 176 °C for the first, 135 °C for the second.

First: O=C(Nc1cccc(Cc2nnn[nH]2)c1)C(F)(F)C(F)(F)C(F)(F)F
Second: CCOC(=O)C(OCc1ccc(Cl)cc1)(C(F)(F)F)C(F)(F)F
The melting point of the first is higher: 148 to 151 °C for the first, 33 °C for the second.

Compared with `CCCCn1c(=O)n(CCCC)c2cc3c(N4CCN(C(=O)Nc5ccc(Oc6ccccc6)cc5)CC4)ncnc3cc21`, `Fc1ccc(Cn2c(NC3CCN(CCSc4nc5cccnc5s4)CC3)nc3ccccc32)cc1` is higher in melting point: 134 to 136 °C for the first, 160 °C for the second.

Compared with `NC(=O)c1cccc(OCc2ccc(Br)cc2)c1`, `CC(C)C(C(=O)O)c1ccc(Br)cc1` (configuration not stated) is lower in melting point: 160 to 161 °C for the first, 97 to 98 °C for the second.

First: Cc1c(CC(=O)NCCO[N+](=O)[O-])cc(-c2ccc(S(C)(=O)=O)cc2)n1-c1ccccc1
Second: Cc1ccc(-c2cccn2-c2ccc(S(C)(=O)=O)cc2)cc1
The melting point of the first is lower: 89 °C for the first, 186 to 187 °C for the second.

Compared with `NC1=NC(=O)N(c2ccccc2)C1`, `O=S1(=O)N=C(O)C(c2ccccc2)=N1` is lower in melting point: 277 to 279 °C for the first, 202 to 204 °C for the second.

First: COC(=O)c1oc2c(sc3ccccc32)c1OC
Second: COc1ccc2c(C(=O)O)ccc(OC)c2c1
The melting point of the first is lower: 145 to 146 °C for the first, 227 to 229 °C for the second.

Compared with `CCSc1ccc2c3c(cccc13)C(=O)N2`, `Cc1cccc2nc3sccn3c(=O)c12` is higher in melting point: 144 to 146 °C for the first, 148 to 150 °C for the second.

First: CC(C)c1c(C=O)c(-c2ccc(F)cc2)n2ccccc12
Second: CCn1nc(-c2ccccc2)c(C(C)=O)c(Nc2cccc(F)c2)c1=O
The melting point of the first is lower: 97 to 98 °C for the first, 176 to 178 °C for the second.

First: CC(=O)Nc1ccc(-c2ccc(C(O)CCC(=O)O)cc2)cc1Br (configuration not stated)
Second: CC(C)(C)CC(=O)c1c(-c2ccc3c(Br)c(OCC(=O)O)ccc3c2)sc2ccccc12
The melting point of the first is lower: 125 to 126 °C for the first, 206 to 207 °C for the second.

First: Cc1c(NC(=O)c2ccc(OC[C@@H]3CCCO3)cc2)ccc2[nH]c(CNCC(C)(C)O)cc12
Second: CCC(OC)(c1ccc(OCc2cc3ccccc3[nH]c2=O)c(OC)c1)c1nccs1 (configuration not stated)
The melting point of the first is lower: 169 to 170 °C for the first, 170 to 171 °C for the second.

Compared with `CCc1nc(/C=C\c2cn(-c3ccccc3)nc2OCc2ccc(OCc3nc(-c4ccco4)oc3C)c(OC)c2)cs1`, `O=C(O)c1c[nH]c2c(OCC3CN(Cc4ccccc4)CCN3Cc3ccccc3)c(F)c(F)cc2c1=O` (configuration not stated) is higher in melting point: 108 to 109 °C for the first, 158 to 159 °C for the second.

Compared with `Cc1ccc(S(=O)(=O)NC2CCCCNC2=O)cc1` (configuration not stated), `Cc1ccc(-c2c(-c3ccc(S(C)(=O)=O)cc3)cnn(-c3ccc(F)c(F)c3)c2=O)cc1` is higher in melting point: 180 °C for the first, 190 to 192 °C for the second.

First: O=CCOc1ccc(Cl)cc1
Second: CCOc1ccc2[nH]c(=O)n(C(C)(C)CC(C)(C)C)c2c1
The melting point of the first is higher: 122 to 128 °C for the first, 108 °C for the second.

First: CC(=NC(=Nc1ccccc1)N1CCOCC1)NC(C)(C)C
Second: CN1CCC(=O)C(C(c2ccccc2)c2ccccc2)C1 (configuration not stated)
The melting point of the first is higher: 164 to 166 °C for the first, 127 to 128 °C for the second.

First: CC1=Nc2c(C)nn(CC(F)(F)F)c2C2=NC(C)CN12 (configuration not stated)
Second: N#Cc1cnn2c(-c3cccc(F)c3)ccnc12
The melting point of the first is lower: 91 to 95 °C for the first, 222 to 224 °C for the second.

`Cc1ccc(-c2cncc(OC3SCC(O)C(O)C3O)c2)cc1F` (configuration not stated) and `COc1cc(NC(=O)c2cc(C(C)C)c(C(C)C)s2)ccc1C(=O)O` cannot be ordered by melting point: 213 °C for the first, 213 to 214 °C for the second.

First: Nc1c(Cl)cc(C(O)CNCCCCCCOCCc2ccc(N3CCOCC3)cc2)cc1Cl (configuration not stated)
Second: CCOC(=O)CCCn1ccnc1CSc1ccc(N)cc1
The melting point of the first is higher: 102 to 103 °C for the first, 74 to 75 °C for the second.

First: Cc1cn(N=Cc2cccnc2)c(=O)n1CC#N
Second: N#CSc1nc(Cl)ncc1Br
The melting point of the first is higher: 195 to 198 °C for the first, 166 to 170 °C for the second.
